In ChEMBL document CHEMBL1201862, “PubChem BioAssay data set” (2004):
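Cells were grown in 96-well plates and exposed to each compound for 48 hours at five concentrations; endpoints were interpolated linearly between bracketing concentrations, or set to the highest concentration if not reached. The concentration for 50% growth inhibition is given as GI50.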 Active and inactive are the calls of the source. No stated cut-off is given here; in the data, active = GI50 up to about 1.1 µM and inactive = higher.

Tests used:
Assay in all cases: inhibition of tumour cell growth, NCI panel, 48 h
ACHN = system: ACHN
EKVX = system: EKVX
HCC 2998 = system: HCC 2998
HCT-116 = system: HCT-116
HCT-15 = system: HCT-15
MCF7 = system: MCF7
MDA-MB-231 = system: MDA-MB-231
MDA-MB-435 = system: MDA-MB-435
MDA-N = system: MDA-N
MOLT-4 = system: MOLT-4
OVCAR-5 = system: OVCAR-5
RXF 393 = system: RXF 393
SN12C = system: SN12C
SW-620 = system: SW-620
U-251 = system: U-251
UO-31 = system: UO-31
SF-539 = system: SF-539
HL-60 = system: HL-60
SR = system: SR

Compound | GI50 (ACHN) | GI50 (EKVX) | GI50 (HCC 2998) | GI50 (HCT-116) | GI50 (HCT-15) [µM] | GI50 (MCF7) | GI50 (MDA-MB-231) | GI50 (MDA-MB-435) | GI50 (MDA-N) | GI50 (MOLT-4) | GI50 (OVCAR-5) | GI50 (RXF 393) | GI50 (SN12C) | GI50 (SW-620) | GI50 (U-251) | GI50 (UO-31) | GI50 (SF-539) | GI50 (HL-60) | GI50 (SR)
CN1C/C(=C\c2cccs2)C(=O)/C(=C/c2cccs2)C1 | 25.9 µM (inactive) | 19.1 µM (inactive) | 19.5 µM (inactive) | 14.2 µM (inactive) | 27.2 | 15.7 µM (inactive) | 18.3 µM (inactive) | 16 µM (inactive) | 15.6 µM (inactive) | 6.59 µM (inactive) | 20.6 µM (inactive) | 20.3 µM (inactive) | 21.8 µM (inactive) | 40.7 µM (inactive) | 15.6 µM (inactive) | 18.7 µM (inactive) |  |  | 
C=CC(CBr)CCC(Br)C(C)(C)Br (stereo not drawn) | > 10 µM (inactive) | > 10 µM (inactive) | > 10 µM (inactive) | > 10 µM (inactive) | > 10 | > 10 µM (inactive) | > 10 µM (inactive) | > 10 µM (inactive) | > 10 µM (inactive) | > 10 µM (inactive) | > 10 µM (inactive) | > 10 µM (inactive) | > 10 µM (inactive) | > 10 µM (inactive) | > 10 µM (inactive) | > 10 µM (inactive) | > 10 µM (inactive) |  | 
C1CSC[C@H]2COC[C@@H](CSCCS1)S2 |  | > 100 µM (inactive) | > 100 µM (inactive) | > 100 µM (inactive) | > 100 | > 100 µM (inactive) | > 100 µM (inactive) | > 100 µM (inactive) | > 100 µM (inactive) | > 100 µM (inactive) | > 100 µM (inactive) |  | > 100 µM (inactive) | > 100 µM (inactive) | > 100 µM (inactive) | > 100 µM (inactive) | > 100 µM (inactive) | > 100 µM (inactive) | > 100 µM (inactive)
COC(=O)C1C(OS(=O)(=O)O)CCC2CN3CCc4c([nH]c5ccccc45)C3CC21 (stereo not drawn) | > 100 µM (inactive) | > 100 µM (inactive) |  | > 100 µM (inactive) | > 100 | > 100 µM (inactive) | > 100 µM (inactive) | > 100 µM (inactive) | > 100 µM (inactive) | > 100 µM (inactive) | > 100 µM (inactive) | > 100 µM (inactive) | > 100 µM (inactive) | > 100 µM (inactive) | > 100 µM (inactive) | > 100 µM (inactive) | > 100 µM (inactive) | > 100 µM (inactive) | > 100 µM (inactive)
O=c1c(C(c2ccc3ccccc3c2)c2c(O)oc3ccccc3c2=O)c(O)oc2ccccc12 | 20.6 µM (inactive) | 31.9 µM (inactive) | 17.9 µM (inactive) | 35 µM (inactive) | 20 | 37.1 µM (inactive) | 22.6 µM (inactive) | 24.9 µM (inactive) | 27.4 µM (inactive) | 22.4 µM (inactive) | 28.1 µM (inactive) | 46.7 µM (inactive) | 20.6 µM (inactive) | 31.9 µM (inactive) | 16.6 µM (inactive) | 17 µM (inactive) | 25.5 µM (inactive) | 34 µM (inactive) | 
O=C1CC2(CCN(Cc3ccccc3)CC2)C(=O)N1N1CCCCC1 | > 100 µM (inactive) |  |  | > 100 µM (inactive) | > 100 | > 100 µM (inactive) | > 100 µM (inactive) | > 100 µM (inactive) | > 100 µM (inactive) | > 100 µM (inactive) | > 100 µM (inactive) | > 100 µM (inactive) | > 100 µM (inactive) | > 100 µM (inactive) | > 100 µM (inactive) | > 100 µM (inactive) | > 100 µM (inactive) | > 100 µM (inactive) | 
COc1cc(OC)cc(-c2nc3cc(F)ccc3s2)c1 | 14.5 µM (inactive) | 12.1 µM (inactive) | < 0.01 µM (active) | 13.6 µM (inactive) | 55.1 | 1.83 µM (inactive) | 13.6 µM (inactive) | > 100 µM (inactive) | > 100 µM (inactive) |  | 24.9 µM (inactive) | 17 µM (inactive) | 36.4 µM (inactive) | > 100 µM (inactive) | 15.1 µM (inactive) | 31 µM (inactive) | 15.8 µM (inactive) |  | 
CCOC(=O)C1=CN=C2C(=O)N(c3ccccc3)N(C)C2(C)C1=N (stereo not drawn) | > 100 µM (inactive) | > 100 µM (inactive) | > 100 µM (inactive) | > 100 µM (inactive) | > 100 | > 100 µM (inactive) | > 100 µM (inactive) | > 100 µM (inactive) | > 100 µM (inactive) |  | > 100 µM (inactive) | > 100 µM (inactive) | > 100 µM (inactive) | > 100 µM (inactive) | > 100 µM (inactive) | > 100 µM (inactive) | > 100 µM (inactive) | > 100 µM (inactive) | 
C=C(C)[C@H]1CC23C(=O)C(C(=O)C(C)C)=C(O)[C@](C)(C[C@H]2C1(C)C)C3=O [LALIBINONE B] | 16.6 µM (inactive) | 11 µM (inactive) |  |  | 17.2 | 15.3 µM (inactive) | 15.6 µM (inactive) | 16.4 µM (inactive) | 18.9 µM (inactive) | 3.72 µM (inactive) | 14.5 µM (inactive) | 12.9 µM (inactive) | 17 µM (inactive) | 17.8 µM (inactive) | 19.1 µM (inactive) | 18.3 µM (inactive) |  | 15.2 µM (inactive) | 14.5 µM (inactive)
CCC1(CC)CC(=NNS(=O)(=O)c2ccc(C)cc2)C1 | > 100 µM (inactive) | > 100 µM (inactive) | > 100 µM (inactive) | > 100 µM (inactive) | > 100 | > 100 µM (inactive) | > 100 µM (inactive) | > 100 µM (inactive) | > 100 µM (inactive) | > 100 µM (inactive) | > 100 µM (inactive) | > 100 µM (inactive) | > 100 µM (inactive) | > 100 µM (inactive) | > 100 µM (inactive) | > 100 µM (inactive) | > 100 µM (inactive) | > 100 µM (inactive) | 
COc1ccc2c(c1)CC1COc3cc(OC)ccc3C1O2 (stereo not drawn) |  | > 100 µM (inactive) | > 100 µM (inactive) | > 100 µM (inactive) | > 100 | > 100 µM (inactive) | > 100 µM (inactive) | > 100 µM (inactive) | > 100 µM (inactive) | > 100 µM (inactive) | > 100 µM (inactive) |  | > 100 µM (inactive) | > 100 µM (inactive) | 36.6 µM (inactive) | > 100 µM (inactive) | > 100 µM (inactive) |  | > 100 µM (inactive)
Cc1[nH]c(=O)[nH]c(=S)c1C(=O)NC(C)(CO)CO | > 100 µM (inactive) | > 100 µM (inactive) | > 100 µM (inactive) | > 100 µM (inactive) | > 100 | > 100 µM (inactive) | > 100 µM (inactive) | > 100 µM (inactive) | > 100 µM (inactive) | > 100 µM (inactive) | > 100 µM (inactive) | > 100 µM (inactive) | > 100 µM (inactive) | > 100 µM (inactive) | > 100 µM (inactive) | > 100 µM (inactive) | > 100 µM (inactive) | > 100 µM (inactive) | 
